From ChEMBL document CHEMBL1201862, “PubChem BioAssay data set” (2004)
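Dose response: 5 concentrations. Exposure: 48 h. Format: 96-well plates. Endpoint: linear interpolation; highest concentration if not reached. The concentration for 50% growth inhibition is given as GI50.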 The source made the active and inactive calls. Rule as the data show it: active = GI50 up to about 1.1 µM and inactive = higher.

Experiments:
Experiment in all cases: inhibition of tumour cell growth, NCI panel, 48 h
[1] = system: UO-31
[2] = system: K562
[3] = system: EKVX
[4] = system: Malme-3M
[5] = system: NCI-H460
[6] = system: MOLT-4
[7] = system: SF-295
[8] = system: KM12
[9] = system: SF-268
[10] = system: SK-MEL-2
[11] = system: LXFL 529
[12] = system: SK-MEL-28
[13] = system: UACC-62
[14] = system: COLO 205
[15] = system: HCT-116
[16] = system: RPMI-8226
[17] = system: HCC 2998
[18] = system: MCF7
[19] = system: MDA-N
[20] = system: PC-3

Measured: GI50

O=C1c2ccccc2C2C1N2C(=O)C(F)(F)F (configuration not stated)
inactive: [1] > 100 µM | [2] 44.2 µM | [3] > 100 µM | [4] > 100 µM | [5] > 100 µM | [6] > 100 µM | [7] > 100 µM | [8] > 100 µM | [9] > 100 µM | [10] > 100 µM | [11] > 100 µM | [12] > 100 µM | [13] > 100 µM | [14] > 100 µM | [15] > 100 µM | [16] > 100 µM

COC1OC2COC(c3ccccc3)OC2C(O)C1Br (configuration not stated)
inactive: [2] > 100 µM | [4] > 100 µM | [5] > 100 µM | [17] > 100 µM | [6] > 100 µM | [7] > 100 µM | [8] > 100 µM | [9] > 100 µM | [11] > 100 µM | [12] > 100 µM | [13] > 100 µM | [14] > 100 µM | [15] > 100 µM | [16] > 100 µM

CC(=O)O/N=C/c1ncccc1OC(C)=O
inactive: [1] > 100 µM | [2] > 100 µM | [3] > 100 µM | [4] > 100 µM | [5] > 100 µM | [6] > 100 µM | [7] > 100 µM | [8] > 100 µM | [9] > 100 µM | [10] > 100 µM | [11] > 100 µM | [12] > 100 µM | [13] > 100 µM | [14] > 100 µM | [15] > 100 µM

O=C(O)c1nn(-c2ccc(Cl)cc2)c2c1C(=O)c1ccccc1C2=O
inactive: [1] > 100 µM | [2] > 100 µM | [3] > 100 µM | [18] > 100 µM | [19] > 100 µM | [4] 5.42 µM | [5] 62.1 µM | [17] 43.1 µM | [6] 22 µM | [7] > 100 µM | [8] > 100 µM | [9] > 100 µM | [10] > 100 µM | [12] > 100 µM | [13] > 100 µM | [14] > 100 µM | [15] > 100 µM | [20] > 100 µM | [16] > 100 µM

CC(C)CNC(=O)Cn1c(-c2ccccc2)cc2ccccc21
inactive: [1] > 100 µM | [2] > 100 µM | [3] > 100 µM | [18] > 100 µM | [19] > 100 µM | [4] > 100 µM | [5] > 100 µM | [17] > 100 µM | [6] > 100 µM | [7] 54.3 µM | [8] > 100 µM | [9] > 100 µM | [10] > 100 µM | [12] > 100 µM | [13] > 100 µM | [14] > 100 µM | [15] > 100 µM | [20] > 100 µM | [16] > 100 µM

CCOC(=O)C(CCN1CCC2(CC1)C(=O)N(C)CN2c1ccccc1)C(=O)OCC
inactive: [1] > 100 µM | [2] > 100 µM | [3] > 100 µM | [18] > 100 µM | [19] > 100 µM | [4] > 100 µM | [5] > 100 µM | [17] 57.7 µM | [6] > 100 µM | [7] > 100 µM | [8] > 100 µM | [9] > 100 µM | [10] > 100 µM | [12] > 100 µM | [13] > 100 µM | [14] > 100 µM | [15] > 100 µM | [20] > 100 µM | [16] > 100 µM

CC(=O)SC(C[N+](=O)[O-])c1ccccc1 (configuration not stated)
inactive: [1] 2.3 µM | [2] 2.41 µM | [3] 6.31 µM | [18] 1.74 µM | [19] 2.32 µM | [4] 16.6 µM | [5] 8.67 µM | [17] 4.75 µM | [6] 1.72 µM | [7] 6.15 µM | [8] 4.99 µM | [9] 7.98 µM | [10] 19.8 µM | [12] 5.55 µM | [13] 13.9 µM | [14] 2.77 µM | [15] 1.6 µM | [20] 10.7 µM | [16] 2.05 µM

C/C(=C\COc1cc(O)c2c(c1)C(=O)c1cc(C)cc(O)c1C2=O)CCC1OC1(C)C (configuration not stated)
inactive: [1] > 100 µM | [2] 83.8 µM | [3] > 100 µM | [18] 38.4 µM | [19] > 100 µM | [4] > 100 µM | [5] 10.3 µM | [17] > 100 µM | [6] 7.85 µM | [7] > 100 µM | [8] > 100 µM | [9] 42.3 µM | [10] > 100 µM | [12] > 100 µM | [13] 40.3 µM | [14] > 100 µM | [15] 77.8 µM | [20] > 100 µM | [16] 93.8 µM

CNC(=O)NCCN1CC2CCC(CC2)C1
inactive: [1] > 10 µM | [2] > 10 µM | [3] > 10 µM | [18] > 10 µM | [19] > 10 µM | [4] > 10 µM | [5] > 10 µM | [17] > 10 µM | [6] > 10 µM | [7] > 10 µM | [8] > 10 µM | [9] > 10 µM | [10] > 10 µM | [12] > 10 µM | [13] > 10 µM | [14] > 10 µM | [15] > 10 µM | [20] > 10 µM | [16] > 10 µM

COc1ccc(/C=N/N2C(=O)c3c(N)c(C#N)c(-c4ccccc4)c(-c4ccccc4)c3C2=O)cc1
inactive: [1] > 100 µM | [2] > 100 µM | [3] > 100 µM | [18] > 100 µM | [19] > 100 µM | [4] > 100 µM | [5] > 100 µM | [17] > 100 µM | [6] > 100 µM | [7] 70.8 µM | [8] > 100 µM | [9] > 100 µM | [10] > 100 µM | [12] > 100 µM | [13] > 100 µM | [14] > 100 µM | [15] 3.65 µM | [20] > 100 µM | [16] > 100 µM

CCOP(=O)(OCC)OC1c2[nH]cc(C(=O)OCc3ccccc3)c2-c2cc(C(=O)OC)[nH]c2C1OC (configuration not stated)
inactive: [1] 4.57 µM | [2] > 20 µM | [3] 5.94 µM | [18] 8.67 µM | [19] 17.5 µM | [4] 9.06 µM | [5] 4.55 µM | [17] 6.85 µM | [6] 3.58 µM | [7] 5 µM | [8] 7.96 µM | [9] 12.5 µM | [10] 9.4 µM | [12] 4.94 µM | [13] 7.05 µM | [14] 6.89 µM | [15] 6.4 µM | [20] 4.94 µM | [16] 5.62 µM
